Measurements from ChEMBL document CHEMBL6087429, “Synthesis of drimanyl indole fragments of drimentine alkaloids and their antibacterial activities” (2025).
≈ marks a conversion by molar mass, not a printed value.

How the values were obtained:
Format in all cases: functional
Staphylococcus aureus [1] = experiment: Antibacterial activity against Staphylococcus aureus ATCC 29213 assessed as inhibition of bacterial growth
Staphylococcus aureus [2] = experiment: Antibacterial activity against Staphylococcus aureus ATCC 29213 assessed as inhibition of bacterial growth at 16 ug/ml
Ralstonia solanacearum [3] = experiment: Antibacterial activity against Ralstonia solanacearum Px1 assessed as inhibition of bacterial growth
Ralstonia solanacearum [4] = experiment: Antibacterial activity against Ralstonia solanacearum Px1 assessed as inhibition of bacterial growth at 16 ug/ml
Escherichia coli = experiment: Antibacterial activity against Escherichia coli ATCC 25922 assessed as inhibition of bacterial growth
Pseudomonas aeruginosa = experiment: Antibacterial activity against Pseudomonas aeruginosa PA14 assessed as inhibition of bacterial growth

| Compound | MIC (Staphylococcus aureus [1]) [µg/mL] | inhibition at 16 µg/mL (Staphylococcus aureus [2]) [%] | MIC (Ralstonia solanacearum [3]) [µg/mL] | inhibition at 16 µg/mL (Ralstonia solanacearum [4]) [%] | inhibition (INH) (Escherichia coli) [%] | inhibition (INH) (Pseudomonas aeruginosa) [%] |
| --- | --- | --- | --- | --- | --- | --- |
| S=c1[nH]nc(NCNc2n[nH]c(=S)s2)s1 | 256 (≈ 919 µM) | 0 | 128 (≈ 460 µM) | 0 | – | – |
| Cc1c(C[C@@H]2[C@@]3(C)CCCC(C)(C)[C@@H]3CC[C@@]2(C)O)c2ccccc2n1Cc1ccc(F)cc1 | – | 0 | – | 0 | 0 | 0 |
| Cc1c(C[C@@H]2[C@@]3(C)CCCC(C)(C)[C@@H]3CC[C@@]2(C)O)c2ccccc2n1-c1ccc(F)cc1 | – | 0 | – | 0 | 0 | 0 |
| C=CCn1c(C)c(C[C@@H]2[C@@]3(C)CCCC(C)(C)[C@@H]3CC[C@@]2(C)O)c2ccccc21 | – | 0 | – | 0 | 0 | 0 |
| Cc1ccc(-n2c(C)c(C[C@@H]3[C@@]4(C)CCCC(C)(C)[C@@H]4CC[C@@]3(C)O)c3ccccc32)cc1 | – | 0 | – | 0 | 0 | 0 |
| Cc1c2c3ccccc3n1[C@]1(C)CC[C@H]3C(C)(C)CCC[C@]3(C)[C@H]1C2 | – | 0 | – | 0 | 0 | 0 |
| Cc1c(C[C@@H]2[C@@]3(C)CCCC(C)(C)[C@@H]3CC[C@@]2(C)O)c2ccccc2n1-c1ccc(C(F)(F)F)cc1 | – | 0 | – | 0 | 0 | 0 |
| Cc1c(C[C@@H]2[C@@]3(C)CCCC(C)(C)[C@@H]3CC[C@@]2(C)O)c2ccccc2n1Cc1ccc(C(F)(F)F)cc1 | – | 0 | – | 0 | 0 | 0 |
| Cc1ccc(Cn2c(C)c(C[C@@H]3[C@@]4(C)CCCC(C)(C)[C@@H]4CC[C@@]3(C)O)c3ccccc32)cc1 | – | 0 | – | 0 | 0 | 0 |
| Cc1c(C[C@@H]2[C@@]3(C)CCCC(C)(C)[C@@H]3CC[C@@]2(C)O)c2ccccc2n1-c1ccccc1 | – | 0 | – | 0 | 0 | 0 |
| CCn1c(C)c(C[C@@H]2[C@@]3(C)CCCC(C)(C)[C@@H]3CC[C@@]2(C)O)c2ccccc21 | – | 0 | – | 0 | 0 | 0 |
| CC1=C(Cc2c(C)[nH]c3ccccc23)[C@@]2(C)CCCC(C)(C)[C@@H]2CC1 | – | 0 | – | 92 | 0 | 0 |
| Cc1c(C[C@@H]2[C@@]3(C)CCCC(C)(C)[C@@H]3CC[C@@]2(C)O)c2ccccc2n1Cc1ccccc1 | – | 0 | – | 0 | 0 | 0 |
| Cc1[nH]c2ccccc2c1C[C@@H]1[C@@]2(C)CCCC(C)(C)[C@@H]2CC[C@@]1(C)O | – | 93 | 8 (≈ 22.6 µM) | > 99 | 0 | 0 |
| Cc1c(C[C@@H]2[C@@]3(C)CCCC(C)(C)[C@@H]3CC[C@@]2(C)O)c2ccccc2n1C(=O)c1ccccc1 | – | 0 | – | 0 | 0 | 0 |
| CC1=CC[C@H]2C(C)(C)CCC[C@]2(C)[C@H]1Cc1c(C)[nH]c2ccccc12 | – | 0 | – | 95 | 0 | 0 |
| Cc1c(C[C@@H]2[C@@]3(C)CCCC(C)(C)[C@@H]3CC[C@@]2(C)O)c2ccccc2n1C | – | 0 | – | 0 | 0 | 0 |
| C=CCCn1c(C)c(C[C@@H]2[C@@]3(C)CCCC(C)(C)[C@@H]3CC[C@@]2(C)O)c2ccccc21 | – | 0 | – | 0 | 0 | 0 |
| C=C1CC[C@H]2C(C)(C)CCC[C@]2(C)[C@H]1Cc1c(C)[nH]c2ccccc12 | – | 0 | 16 (≈ 47.7 µM) | > 99 | 0 | 0 |
| C=C[C@](C)(O)CC[C@@H]1[C@@]2(C)CCCC(C)(C)[C@@H]2CC[C@@]1(C)O [SCLAREOL] | 16 (≈ 51.9 µM) | > 99 | 32 (≈ 104 µM) | 65 | 0 | 0 |
| CN[C@H](CC(C)C)C(=O)N[C@H]1C(=O)N[C@@H](CC(N)=O)C(=O)N[C@H]2C(=O)N[C@H]3C(=O)N[C@H](C(=O)N[C@H](C(=O)O)c4cc(O)cc(O)c4-c4cc3ccc4O)[C@H](O)c3ccc(c(Cl)c3)Oc3cc2cc(c3O[C@@H]2O[C@H](CO)[C@@H](O)[C@H](O)[C@H]2O[C@H]2C[C@](C)(N)[C@H](O)[C@H](C)O2)Oc2ccc(cc2Cl)[C@H]1O [VANCOMYCIN] | – | > 99 | < 0.5 | > 99 | – | – |
